In US20220401324A1, “COSMETIC PREPARATION WITH ANISIC ACID AND LEVULINIC ACID, HAVING SELECTIVE ANTIMICROBIAL EFFECT” (BEIERSDORF AG, priority 2019, published 2022):

Columns and labels:
[1] = test system: S. epidermidis (DSM 1798); assay: Suspension test with S. epidermidis; format: cell-based, Staphylococcus epidermidis; settings: BHI medium, sampled after 1 h, 3 h and 6 h
Experimental: (§1) The effect of the formulations according to the invention was further tested in suspension tests with S. epidermidis and C. acnes. […] These liquid stock cultures were used to prepare a first passage. Here, a sterile disposable inoculation loop was used to streak the relevant culture on an agar plate (C. acnes: COST agar, S. epidermidis: COAST agar) and the culture was then incubated. The cultures of C. acnes were incubated at 37° C. for 5 days, whereas the cultures of S. epidermidis were incubated at 37° C. for 24 h. Said first passage was then used to prepare a second passage by picking of a few colonies using a sterile disposable inoculation loop and subsequent streaking thereof onto a new agar plate. Said second passage was then incubated at the appropriate temperature for 5 days or 24 h. The second passage obtained was then used for the suspension test.
(§2) To prepare the suspensions, a few colonies of the second passage were removed using a sterile inoculation loop and added to 10 mL of medium in a baffled flask containing 5 g of glass beads (4 mm diameter) and gently shaken for 3 min. Thereafter, optical density (OD) was used to set the approximate number of cells per mL. Optical density was determined at 600 nm using an Eppendorf photometer. The OD obtained was adjusted to a value around 0.8 (±0.01) and then diluted again 1:50. […]

C. acnes (DSM 1897) = assay: Suspension test with C. acnes; format: cell-based, Cutibacterium acnes; settings: anaerobic medium, sampled after 1 h, 3 h and 6 h
Experimental: as §1, §2

Row | SMILES | growth of the aerobic bacterium S. epidermidis (FIGS. 4 and 5) [1] | cell count of the anaerobic bacterium C. acnes (FIGS. 4 and 5) (C. acnes (DSM 1897))
1 | CC(=O)CCC(=O)O [levulinic acid, 4-oxopentanoic acid] | does not significantly affect the growth | does not lead to a reduction in the cell count
2 | COc1ccc(C(=O)O)cc1 [anisic acid, 4-methoxybenzoic acid] | does not significantly affect the growth | does not lead to a reduction in the cell count
